Where two headings read alike, the source gives them in different places.
Assay: Single dose study (001 Study) Part A: plasma PK of compound A
Format: in vivo
Conditions: human, healthy subjects (Part A); for AUC from 0 to 24 h / AUC(0-inf) / AUC(0-t) / Cmax / half-life / Tmax: plasma, po; for AUC from 0 to 24 h: read-out: AUC(0-24) Mean(SD); for AUC(0-inf): read-out: AUC(0-inf) Mean(SD); for AUC(0-t): read-out: AUC(0-t) Mean(SD); for Cmax: read-out: Cmax Mean(SD); for half-life: read-out: t1/2 Median (converted); for Tmax: read-out: tmax Median; for concentration at 9 h: read-out: C9 Mean(SD)
Excerpt: This was a randomized, double-blind, placebo- and active-controlled, sequential, single-dose study. The study consisted of two parts, Part A (healthy subjects) and Part B (otherwise healthy subjects with primary insomnia).
For Part A, 64 healthy subjects were enrolled into cohorts sequentially in a gradual dose escalation manner, to receive either compound A or placebo, and stratified by gender. Each cohort comprised six compound A- and two placebo-treated subjects. All study drugs were administered as single doses using one or more compound A-capsules or compound A-matched placebo capsules due to the test dose. After screening, subjects underwent baseline procedures and randomization on Day-2. Subjects were dosed on Day 1 in the morning after an overnight fast, 1 hour after lights-on. PK blood samples were collected at prespecified timepoints, and PD assessments were performed. Subjects were administered assessments on Day 1 predose and every 2 hours from 2 to 12 hours postdose, and each morning on Days 2 to 6.
For subjects in Part A, Blood samples for determination of plasma concentrations of compound A were collected on Day 1 predose and at 0.25 (15 minutes), 0.5 (30 minutes), 1, 2, 3, 4, 5, 6, 9, 12, 24, 48, 72, 96, 120, 168, and 240 hours after oral administration of compound A, but collected up to 72 hours in the first three cohorts (1, 2.5 and 5 mg compound A groups). PK samples were collected preferentially via an indwelling venous catheter for the first 12 hours and by direct venipuncture thereafter.
Plasma concentrations of compound A were measured using a validated liquid chromatography-mass spectrometry/mass spectrometry (LC-MS/MS) assay.

Work on `Cc1ncc(OC[C@@]2(c3cccc(F)c3)C[C@H]2C(=O)Nc2ccc(F)cn2)c(C)n1` [Compound A, (1R,2 S)-2-(((2,4-dimethylpyrimidin-5-yl)oxy)methyl)-2-(3-fluorophenyl)-N-(5-fluoropyridin-2-yl) cyclopropanecarboxamide] yielded an AUC from 0 to 24 h (1 mg, single oral 1 mg) of ~17.2 ng·h/mL, an AUC(0-inf) (1 mg, single oral 1 mg) of ~19.8 ng·h/mL and an AUC(0-t) (1 mg, single oral 1 mg) of ~19.1 ng·h/mL. The Cmax (1 mg, single oral 1 mg) was ~5.3 ng/mL, the half-life (1 mg, single oral 1 mg) was ~12.7 h and the Tmax (1 mg, single oral 1 mg) was ~1 h. The AUC from 0 to 24 h (2.5 mg, single oral 2.5 mg) was 56.8 ng·h/mL, the AUC(0-inf) (2.5 mg, single oral 2.5 mg) was 79.7 ng·h/mL and the AUC(0-t) (2.5 mg, single oral 2.5 mg) was 80.2 ng·h/mL. The Cmax (2.5 mg, single oral 2.5 mg) was 15.9 ng/mL, the half-life (2.5 mg, single oral 2.5 mg) was 30.1 h and the Tmax (2.5 mg, single oral 2.5 mg) was 1.01 h. For the same compound, the AUC from 0 to 24 h (5 mg, single oral 5 mg) was 94.6 ng·h/mL, the AUC(0-inf) (5 mg, single oral 5 mg) was 149 ng·h/mL and the AUC(0-t) (5 mg, single oral 5 mg) was 128 ng·h/mL. For the same compound, the Cmax (5 mg, single oral 5 mg) was 22.7 ng/mL, the half-life (5 mg, single oral 5 mg) was 31.3 h and the Tmax (5 mg, single oral 5 mg) was 1.55 h. The AUC from 0 to 24 h (10 mg, single oral 10 mg) was 159 ng·h/mL, the AUC(0-inf) (10 mg, single oral 10 mg) was 311 ng·h/mL and the AUC(0-t) (10 mg, single oral 10 mg) was 284 ng·h/mL. The Cmax (10 mg, single oral 10 mg) was 36 ng/mL, the half-life (10 mg, single oral 10 mg) was 56.1 h and the Tmax (10 mg, single oral 10 mg) was 1 h. The AUC from 0 to 24 h (25 mg, single oral 25 mg) was 654 ng·h/mL, the AUC(0-inf) (25 mg, single oral 25 mg) was 1540 ng·h/mL and the AUC(0-t) (25 mg, single oral 25 mg) was 1450 ng·h/mL. The Cmax (25 mg, single oral 25 mg) was 108 ng/mL, the half-life (25 mg, single oral 25 mg) was 65.5 h and the Tmax (25 mg, single oral 25 mg) was 2.01 h. It also gave an AUC from 0 to 24 h (50 mg, single oral 50 mg) of 1110 ng·h/mL, an AUC(0-inf) (50 mg, single oral 50 mg) of 2150 ng·h/mL and an AUC(0-t) (50 mg, single oral 50 mg) of 2080 ng·h/mL. It also gave a Cmax (50 mg, single oral 50 mg) of 168 ng/mL, a half-life (50 mg, single oral 50 mg) of 51.9 h and a Tmax (50 mg, single oral 50 mg) of 2.53 h. It also gave an AUC from 0 to 24 h (100 mg, single oral 100 mg) of 1930 ng·h/mL, an AUC(0-inf) (100 mg, single oral 100 mg) of 4740 ng·h/mL and an AUC(0-t) (100 mg, single oral 100 mg) of 4490 ng·h/mL. It also gave a Cmax (100 mg, single oral 100 mg) of 264 ng/mL, a half-life (100 mg, single oral 100 mg) of 59.8 h and a Tmax (100 mg, single oral 100 mg) of 3 h. For the same compound, the AUC from 0 to 24 h (200 mg, single oral 200 mg) was 4080 ng·h/mL, the AUC(0-inf) (200 mg, single oral 200 mg) was 10500 ng·h/mL and the AUC(0-t) (200 mg, single oral 200 mg) was 9840 ng·h/mL. For the same compound, the Cmax (200 mg, single oral 200 mg) was 431 ng/mL, the half-life (200 mg, single oral 200 mg) was 65.2 h and the Tmax (200 mg, single oral 200 mg) was 3 h. It also gave a concentration at 9 h (plasma at 9 h after single oral 1 mg) of 0.384 ng/mL, a concentration at 9 h (plasma at 9 h after single oral 2.5 mg) of 1.54 ng/mL and a concentration at 9 h (plasma at 9 h after single oral 5 mg) of 2.68 ng/mL. For the same compound, the concentration at 9 h (plasma at 9 h after single oral 10 mg) was 4.6 ng/mL, the concentration at 9 h (plasma at 9 h after single oral 25 mg) was 21.9 ng/mL and the concentration at 9 h (plasma at 9 h after single oral 50 mg) was 39.3 ng/mL. The concentration at 9 h (plasma at 9 h after single oral 100 mg) was 86 ng/mL and the concentration at 9 h (plasma at 9 h after single oral 200 mg) was 199 ng/mL.

— patent US11026944B2, “Compositions and methods for treating insomnia” (Eisai R&D Management Co., Ltd., priority 2014, dated 2021)
